Values belong to the compound of their own block, whether it stands above or below them.
Tests used:
[1] = biological target: 5-hydroxytryptamine receptor 5A (Homo sapiens, UniProt P47898); assay: Binding affinity towards human 5-hydroxytryptamine receptor 5A expressed in CHO cells using the radioligand [3H]LSD; type: cell-based
[2] = biological target: 5-hydroxytryptamine receptor 6 (Homo sapiens, UniProt P50406); assay: Binding affinity towards human 5-hydroxytryptamine receptor 6 expressed in HeLa cells using the radioligand [3H]LSD; type: cell-based
Chain of 5-hydroxytryptamine receptor 6 (P50406 whole entry): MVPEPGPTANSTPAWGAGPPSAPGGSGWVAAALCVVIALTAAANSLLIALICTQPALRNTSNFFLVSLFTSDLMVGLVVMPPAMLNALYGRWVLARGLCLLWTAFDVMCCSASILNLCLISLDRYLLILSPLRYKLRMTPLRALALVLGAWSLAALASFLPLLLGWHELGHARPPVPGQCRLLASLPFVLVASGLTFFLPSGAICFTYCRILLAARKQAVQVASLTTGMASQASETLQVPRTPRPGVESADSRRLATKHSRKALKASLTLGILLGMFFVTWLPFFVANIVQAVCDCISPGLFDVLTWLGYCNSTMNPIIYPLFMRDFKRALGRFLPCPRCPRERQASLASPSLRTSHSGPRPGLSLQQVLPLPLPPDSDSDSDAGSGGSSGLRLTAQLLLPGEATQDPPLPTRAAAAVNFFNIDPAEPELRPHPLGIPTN

[3] = biological target: D(3) dopamine receptor (Homo sapiens, UniProt P35462); assay: Binding affinity towards human dopamine receptor D3 expressed in CHO cells using the radioligand [125I]iodosulpiride; type: cell-based
Chain of D(3) dopamine receptor (P35462 whole entry): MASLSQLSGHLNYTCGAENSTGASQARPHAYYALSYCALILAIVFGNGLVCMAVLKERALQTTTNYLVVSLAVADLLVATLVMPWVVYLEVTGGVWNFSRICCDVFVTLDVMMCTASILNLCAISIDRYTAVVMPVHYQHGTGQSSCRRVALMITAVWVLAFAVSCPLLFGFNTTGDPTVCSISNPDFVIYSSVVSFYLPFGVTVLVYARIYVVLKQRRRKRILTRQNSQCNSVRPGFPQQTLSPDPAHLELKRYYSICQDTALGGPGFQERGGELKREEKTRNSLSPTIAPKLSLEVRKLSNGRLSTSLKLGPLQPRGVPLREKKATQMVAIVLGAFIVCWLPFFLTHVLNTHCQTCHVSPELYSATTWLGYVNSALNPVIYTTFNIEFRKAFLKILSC

[4] = biological target: T1, 5-hydroxytryptamine receptor 1F (Homo sapiens, UniProt P30939); assay: Binding affinity towards human 5-hydroxytryptamine receptor 1F expressed in HEK 293 cells using the radioligand [3H]5-HT; type: cell-based, HEK293
T1 sequence (P30939 whole entry): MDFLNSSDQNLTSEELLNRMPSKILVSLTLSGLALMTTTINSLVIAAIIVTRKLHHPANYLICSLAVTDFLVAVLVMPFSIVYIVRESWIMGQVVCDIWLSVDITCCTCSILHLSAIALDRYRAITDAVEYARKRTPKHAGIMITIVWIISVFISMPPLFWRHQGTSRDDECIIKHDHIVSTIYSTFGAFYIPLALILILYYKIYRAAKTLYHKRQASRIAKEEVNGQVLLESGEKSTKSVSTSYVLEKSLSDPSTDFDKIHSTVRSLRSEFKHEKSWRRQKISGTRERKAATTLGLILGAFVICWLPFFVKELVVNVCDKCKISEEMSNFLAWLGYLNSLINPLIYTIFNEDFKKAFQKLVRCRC

[5] = biological target: T2, 5-hydroxytryptamine receptor 2C (Homo sapiens, UniProt P28335); assay: Binding affinity towards human 5-hydroxytryptamine receptor 2C expressed in HEK 293 cells using the radioligand [3H]mesulergine; type: cell-based, HEK293
T2 sequence (P28335 whole entry): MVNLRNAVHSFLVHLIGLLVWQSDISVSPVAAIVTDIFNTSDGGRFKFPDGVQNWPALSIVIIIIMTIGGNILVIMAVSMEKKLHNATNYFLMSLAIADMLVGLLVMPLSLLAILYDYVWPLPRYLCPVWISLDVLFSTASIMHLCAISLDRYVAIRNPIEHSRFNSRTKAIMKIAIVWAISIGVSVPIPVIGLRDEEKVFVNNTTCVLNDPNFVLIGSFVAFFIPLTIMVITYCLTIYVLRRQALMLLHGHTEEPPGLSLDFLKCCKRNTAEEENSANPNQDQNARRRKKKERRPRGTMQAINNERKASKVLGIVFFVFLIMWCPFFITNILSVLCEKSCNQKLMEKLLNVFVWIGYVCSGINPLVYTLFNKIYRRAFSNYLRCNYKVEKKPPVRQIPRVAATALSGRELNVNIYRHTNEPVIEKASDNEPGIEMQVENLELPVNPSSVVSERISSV

[6] = biological target: T3, Alpha-1B adrenergic receptor (Homo sapiens, UniProt P35368); assay: Binding affinity towards human alpha-1B-adrenergic receptor expressed in CHO cells using the radioligand [3H]prazosin; type: cell-based
T3 sequence (P35368 whole entry): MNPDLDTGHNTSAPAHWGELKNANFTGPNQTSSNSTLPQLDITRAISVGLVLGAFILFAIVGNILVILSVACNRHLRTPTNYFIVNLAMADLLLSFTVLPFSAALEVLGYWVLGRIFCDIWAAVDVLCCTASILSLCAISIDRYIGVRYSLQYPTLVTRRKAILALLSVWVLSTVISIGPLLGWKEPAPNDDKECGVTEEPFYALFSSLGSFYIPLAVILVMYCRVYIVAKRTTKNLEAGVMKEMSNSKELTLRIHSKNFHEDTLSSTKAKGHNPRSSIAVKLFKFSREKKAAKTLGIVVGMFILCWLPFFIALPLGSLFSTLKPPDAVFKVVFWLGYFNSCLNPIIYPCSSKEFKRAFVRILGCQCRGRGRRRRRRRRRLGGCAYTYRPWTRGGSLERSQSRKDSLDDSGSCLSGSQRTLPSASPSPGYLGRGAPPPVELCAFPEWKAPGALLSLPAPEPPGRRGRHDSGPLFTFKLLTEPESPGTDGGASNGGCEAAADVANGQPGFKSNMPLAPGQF

[7] = biological target: T4, D(4) dopamine receptor (Homo sapiens, UniProt P21917); assay: Binding affinity towards human dopamine receptor D4 expressed in CHO cells using the radioligand [125I]iodosulpiride; type: cell-based
T4 sequence (P21917 whole entry): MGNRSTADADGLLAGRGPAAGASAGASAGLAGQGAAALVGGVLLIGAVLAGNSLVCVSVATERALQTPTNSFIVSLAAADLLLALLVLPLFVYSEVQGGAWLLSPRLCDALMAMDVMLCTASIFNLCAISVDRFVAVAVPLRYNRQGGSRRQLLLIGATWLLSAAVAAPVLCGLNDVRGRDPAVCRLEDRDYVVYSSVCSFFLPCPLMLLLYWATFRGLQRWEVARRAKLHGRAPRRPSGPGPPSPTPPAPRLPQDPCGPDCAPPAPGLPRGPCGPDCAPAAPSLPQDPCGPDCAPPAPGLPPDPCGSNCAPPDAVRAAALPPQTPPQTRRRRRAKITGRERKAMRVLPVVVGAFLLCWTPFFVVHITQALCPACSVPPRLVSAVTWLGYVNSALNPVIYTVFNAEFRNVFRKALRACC

[8] = biological target: D(2) dopamine receptor (Homo sapiens, UniProt P14416); assay: Binding affinity towards human dopamine receptor D2 expressed in CHO cells using the radioligand [125I]iodosulpiride; type: cell-based
Chain of D(2) dopamine receptor (P14416 whole entry): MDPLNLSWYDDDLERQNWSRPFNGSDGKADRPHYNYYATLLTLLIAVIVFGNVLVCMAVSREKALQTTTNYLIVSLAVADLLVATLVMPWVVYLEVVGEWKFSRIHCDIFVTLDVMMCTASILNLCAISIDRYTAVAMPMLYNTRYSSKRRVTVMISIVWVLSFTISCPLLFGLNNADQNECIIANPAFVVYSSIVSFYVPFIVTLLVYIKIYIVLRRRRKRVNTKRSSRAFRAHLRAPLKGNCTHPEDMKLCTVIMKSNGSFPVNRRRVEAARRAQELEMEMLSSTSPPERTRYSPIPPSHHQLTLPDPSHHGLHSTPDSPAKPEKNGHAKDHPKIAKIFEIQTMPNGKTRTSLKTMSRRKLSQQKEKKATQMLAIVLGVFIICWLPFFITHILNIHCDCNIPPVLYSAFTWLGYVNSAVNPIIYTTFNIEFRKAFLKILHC

[9] = biological target: 5-hydroxytryptamine receptor 7 (Homo sapiens, UniProt P34969); assay: Binding affinity towards human 5-hydroxytryptamine receptor 7 expressed in HEK 293 cells using the radioligand [3H]5-CT; type: cell-based, HEK293
Chain of 5-hydroxytryptamine receptor 7 (P34969 whole entry): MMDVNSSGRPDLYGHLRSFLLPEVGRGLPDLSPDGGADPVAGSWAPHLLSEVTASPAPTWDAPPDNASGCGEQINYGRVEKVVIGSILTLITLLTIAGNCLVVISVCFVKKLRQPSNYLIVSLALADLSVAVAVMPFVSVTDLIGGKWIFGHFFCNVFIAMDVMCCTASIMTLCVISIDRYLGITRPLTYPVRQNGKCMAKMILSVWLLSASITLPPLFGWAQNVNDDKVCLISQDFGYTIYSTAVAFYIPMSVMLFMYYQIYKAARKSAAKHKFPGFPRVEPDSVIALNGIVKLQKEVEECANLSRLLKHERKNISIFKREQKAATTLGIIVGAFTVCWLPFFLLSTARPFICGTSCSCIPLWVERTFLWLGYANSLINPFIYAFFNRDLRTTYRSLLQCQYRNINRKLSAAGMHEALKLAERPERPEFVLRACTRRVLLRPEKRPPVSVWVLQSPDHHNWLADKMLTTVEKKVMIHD

[10] = biological target: 5-hydroxytryptamine receptor 1E (Homo sapiens, UniProt P28566); assay: Binding affinity towards human 5-hydroxytryptamine receptor 1E expressed in HEK 293 cells using the radioligand [3H]5-HT; type: cell-based, HEK293
Chain of 5-hydroxytryptamine receptor 1E (P28566 whole entry): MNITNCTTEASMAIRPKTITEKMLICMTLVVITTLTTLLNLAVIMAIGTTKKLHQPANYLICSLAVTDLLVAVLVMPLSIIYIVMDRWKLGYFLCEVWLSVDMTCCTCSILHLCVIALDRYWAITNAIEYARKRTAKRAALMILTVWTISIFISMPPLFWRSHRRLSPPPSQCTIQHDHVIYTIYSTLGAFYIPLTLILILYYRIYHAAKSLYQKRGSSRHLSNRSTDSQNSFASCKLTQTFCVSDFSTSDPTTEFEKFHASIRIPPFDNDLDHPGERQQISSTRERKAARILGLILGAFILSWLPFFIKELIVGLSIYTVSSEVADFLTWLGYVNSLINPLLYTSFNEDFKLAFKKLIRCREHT

[11] = biological target: T5, 5-hydroxytryptamine receptor 1A (Homo sapiens, UniProt P08908); assay: Binding affinity towards human 5-hydroxytryptamine receptor 1A expressed in HEK 293 cells using the radioligand [3H]8-OH-DPAT; type: cell-based, HEK293
T5 sequence (P08908 whole entry): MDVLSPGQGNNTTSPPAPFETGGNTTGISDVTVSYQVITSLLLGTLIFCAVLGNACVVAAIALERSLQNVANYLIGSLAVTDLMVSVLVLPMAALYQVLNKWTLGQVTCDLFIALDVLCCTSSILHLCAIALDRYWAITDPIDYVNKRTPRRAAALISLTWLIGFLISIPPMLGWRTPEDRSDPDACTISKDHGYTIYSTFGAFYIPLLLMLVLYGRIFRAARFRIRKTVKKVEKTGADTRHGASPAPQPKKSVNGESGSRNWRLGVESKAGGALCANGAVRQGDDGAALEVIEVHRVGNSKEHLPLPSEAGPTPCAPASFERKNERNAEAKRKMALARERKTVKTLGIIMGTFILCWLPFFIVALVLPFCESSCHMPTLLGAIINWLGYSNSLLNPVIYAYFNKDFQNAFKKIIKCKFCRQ

[12] = biological target: 5-hydroxytryptamine receptor 1B (Homo sapiens, UniProt P28222); assay: Binding affinity towards human 5-hydroxytryptamine receptor 1B expressed in CHO cells using the radioligand [3H]5-HT; type: cell-based
Chain of 5-hydroxytryptamine receptor 1B (P28222 whole entry): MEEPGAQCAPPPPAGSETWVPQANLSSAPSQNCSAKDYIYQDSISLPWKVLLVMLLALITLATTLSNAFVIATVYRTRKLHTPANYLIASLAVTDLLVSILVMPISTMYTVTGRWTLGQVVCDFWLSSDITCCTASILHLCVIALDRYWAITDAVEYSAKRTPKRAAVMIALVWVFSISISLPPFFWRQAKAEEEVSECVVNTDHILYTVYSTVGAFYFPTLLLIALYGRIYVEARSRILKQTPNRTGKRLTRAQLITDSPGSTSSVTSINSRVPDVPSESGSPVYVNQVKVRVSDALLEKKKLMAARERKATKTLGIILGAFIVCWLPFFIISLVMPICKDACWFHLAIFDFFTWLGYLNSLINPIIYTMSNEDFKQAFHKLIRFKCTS

[13] = biological target: 5-hydroxytryptamine receptor 2A (Homo sapiens, UniProt P28223); assay: Binding affinity towards human 5-hydroxytryptamine receptor 2A expressed in HEK 293 cells using the radioligand [3H]ketanserin; type: cell-based, HEK293
Chain of 5-hydroxytryptamine receptor 2A (P28223 whole entry): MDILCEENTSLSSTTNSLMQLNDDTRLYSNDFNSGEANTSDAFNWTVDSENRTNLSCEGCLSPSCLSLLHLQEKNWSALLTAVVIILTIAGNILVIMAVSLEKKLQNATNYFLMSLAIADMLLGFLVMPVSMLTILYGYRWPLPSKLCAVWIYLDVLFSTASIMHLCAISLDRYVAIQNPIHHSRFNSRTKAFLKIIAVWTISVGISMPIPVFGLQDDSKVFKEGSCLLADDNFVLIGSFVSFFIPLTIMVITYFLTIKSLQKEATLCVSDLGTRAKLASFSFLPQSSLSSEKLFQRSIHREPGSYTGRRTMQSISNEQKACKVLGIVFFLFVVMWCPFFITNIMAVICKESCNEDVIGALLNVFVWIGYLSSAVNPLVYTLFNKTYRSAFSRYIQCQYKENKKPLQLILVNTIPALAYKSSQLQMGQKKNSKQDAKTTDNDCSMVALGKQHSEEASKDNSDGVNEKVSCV

[14] = biological target: 5-hydroxytryptamine receptor 2B (Homo sapiens, UniProt P41595); assay: Binding affinity towards human 5-hydroxytryptamine receptor 2B expressed in HEK 293 cells using the radioligand [3H]5-HT; type: cell-based, HEK293
Chain of 5-hydroxytryptamine receptor 2B (P41595 whole entry): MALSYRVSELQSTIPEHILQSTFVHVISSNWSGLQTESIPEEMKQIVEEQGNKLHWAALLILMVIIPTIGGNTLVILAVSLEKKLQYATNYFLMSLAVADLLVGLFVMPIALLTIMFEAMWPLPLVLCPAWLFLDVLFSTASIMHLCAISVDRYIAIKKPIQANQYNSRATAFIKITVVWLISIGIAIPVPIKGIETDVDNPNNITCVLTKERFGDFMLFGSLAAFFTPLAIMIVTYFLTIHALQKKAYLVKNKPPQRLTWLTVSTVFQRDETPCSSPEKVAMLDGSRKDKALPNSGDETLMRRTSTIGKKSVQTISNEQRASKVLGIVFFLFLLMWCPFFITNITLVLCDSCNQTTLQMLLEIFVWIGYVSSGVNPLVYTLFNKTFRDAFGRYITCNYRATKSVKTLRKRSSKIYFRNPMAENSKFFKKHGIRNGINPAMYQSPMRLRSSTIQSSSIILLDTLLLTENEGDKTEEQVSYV

[15] = biological target: 5-hydroxytryptamine receptor 1D (Homo sapiens, UniProt P28221); assay: Binding affinity towards human 5-hydroxytryptamine receptor 1D expressed in CHO cells using the radioligand [3H]5-HT; type: cell-based
Chain of 5-hydroxytryptamine receptor 1D (P28221 whole entry): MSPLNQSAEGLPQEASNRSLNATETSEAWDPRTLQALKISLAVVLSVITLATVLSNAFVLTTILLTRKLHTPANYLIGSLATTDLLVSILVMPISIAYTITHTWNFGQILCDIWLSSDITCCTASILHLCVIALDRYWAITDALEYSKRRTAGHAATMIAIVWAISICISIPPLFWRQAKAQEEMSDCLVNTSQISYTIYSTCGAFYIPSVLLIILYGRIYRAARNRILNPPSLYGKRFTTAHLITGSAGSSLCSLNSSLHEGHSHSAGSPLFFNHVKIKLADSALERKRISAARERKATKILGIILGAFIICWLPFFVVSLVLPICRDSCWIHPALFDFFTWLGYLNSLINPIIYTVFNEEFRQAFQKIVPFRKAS

Chain of 5-hydroxytryptamine receptor 5A (P47898 whole entry): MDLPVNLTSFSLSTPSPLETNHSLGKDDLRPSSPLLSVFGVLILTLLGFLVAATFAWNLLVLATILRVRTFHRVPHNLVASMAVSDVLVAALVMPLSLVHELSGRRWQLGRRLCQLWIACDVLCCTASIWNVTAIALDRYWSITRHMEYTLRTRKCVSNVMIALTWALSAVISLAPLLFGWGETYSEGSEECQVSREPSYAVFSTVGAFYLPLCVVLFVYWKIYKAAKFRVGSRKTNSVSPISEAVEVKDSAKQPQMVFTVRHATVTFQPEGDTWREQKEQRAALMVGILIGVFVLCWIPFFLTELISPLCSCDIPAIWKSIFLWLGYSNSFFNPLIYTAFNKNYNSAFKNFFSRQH

SMILES: CN(C)CCN(Cc1ccc(-c2ccc(CN)cc2)cc1)C(=O)CCC1CCCC1
Ki [1]: 3160 nM

SMILES: O=C(CCC1CCCC1)N(Cc1ccc(-c2ccc(CNCCc3ccccc3)cc2)cc1)CC1CCCCN1 (stereo unspecified)
Ki [1]: 25.1 nM

SMILES: CN(C)CCN(Cc1ccc(-c2ccc(CNCCc3ccccc3)cc2)cc1)C(=O)CCC1CCCC1
Ki [2]: 3980 nM
Ki [3]: 631 nM
Ki [4]: > 10000 nM
Ki [5]: 398 nM
Ki [6]: 316 nM
Ki [7]: 794 nM
Ki [8]: 1260 nM
Ki [9]: 3980 nM
Ki [10]: > 10000 nM
Ki [11]: 501 nM
Ki [12]: 316 nM
Ki [13]: 794 nM
Ki [1]: 6.31 nM
Ki [14]: 1000 nM
Ki [15]: 398 nM

SMILES: CN(C)CCN(Cc1ccc(-c2ccc(CNCCc3ccccc3)cn2)cc1)C(=O)/C=C/c1ccccc1
Ki [1]: 5.01 nM

SMILES: CN(C)CCN(Cc1ccc(-c2ccc(CNCCc3ccccc3)cc2)nc1)C(=O)CCC1CCCC1
Ki [1]: 31.6 nM

SMILES: CN(C)CCN(Cc1ccc(-c2ccc(CNCCc3ccccc3)cn2)cc1)C(=O)CCC1CCCC1
Ki [1]: 12.6 nM

Further lines, results first:

Ki [1]: 251 nM
SMILES: CN(C)CCN(Cc1ccc(-c2ccc(CNCCc3ccccc3)cc2)cc1)S(=O)(=O)/C=C/c1ccccc1

Ki [1]: 79.4 nM
SMILES: CN(C)CCN(Cc1ccc(-c2ccc(CNCCc3ccccc3)cc2)cc1)C(=O)C1CC1c1ccccc1 (stereo unspecified)

Ki [1]: 200 nM
SMILES: O=C(c1ccc2c(c1)OCO2)N(Cc1ccc(-c2ccc(CNCCc3ccccc3)cc2)cc1)Cc1cccnc1

Ki [1]: 501 nM
SMILES: COc1cccc(CCN(Cc2ccc(-c3ccc(CNCCc4ccccc4)cc3)cc2)C(=O)/C=C/c2ccccc2)c1

Ki [1]: 126 nM
SMILES: c1ccc(CCNCc2ccc(-c3ccc(CNC4CCN(Cc5ccccc5)CC4)cc3)cc2)cc1

Ki [1]: 6310 nM
SMILES: COCCNCc1ccc(-c2ccc(CN(Cc3cccnc3)C(=O)/C=C/c3ccccc3)cc2)cc1

Source: ChEMBL document CHEMBL1142810, “Discovery of a potent and selective 5-ht5A receptor antagonist by high-throughput chemistry” (Bioorg Med Chem Lett, 2005)
